The source of these data is patent US8603989B2, “Method for treating and preventing kidney stones employing an SGLT2 inhibitor and composition containing same” (Bristol-Myers Squibb Company, priority 2008, dated 2013).

The test system of one assay is diabetic patients. In words: 12-week treatment of diabetic patients: urine glucose, HbA1c, urine volume (Table 5). Type of assay: in vivo, human.
In assay [1] the test system is human SGLT2 (hSGLT2) relative to human SGLT1 (hSGLT1). To be noted: ratio of EC50 in favor of SGLT2.
Protocol: Selectivity for SGLT2 of a given inhibitor can be determined by comparing the EC50 values measured in the SGLT1 and SGLT2 assay. […] Cells expressing hSGLT1 or hSGLT2 were maintained using standard cell culture techniques. Assays for sodium-dependent glucose transport in 96-well plates were initiated by adding 100 μl/well of protein-free assay buffer containing sodium (Hepes/Tris pH 7.4, 137 mM NaCl, 5.4 mM KCl, 2.8 mM CaCl2, 1.2 mM MgSO4), 10 μM ^14C-AMG and inhibitor or dimethyl sulfoxide (DMSO) vehicle, and plates were incubated for 2 h at 37° C. Sodium-dependent ^14C-AMG uptake was calculated by subtracting the counts per minute (CPM) observed under sodium-free uptake conditions from the counts observed under sodium-containing conditions. Inhibitors were assayed at various concentrations in triplicate in the presence of sodium, and the percent inhibition was calculated by comparing CPM in inhibitor-containing wells with CPM in wells containing only DMSO vehicle. Phlorizin, a known SGLT inhibitor, was evaluated in parallel in every assay. A dose-response curve was fitted to an empirical four-parameter model using XL Fit (IDBS, Guilford, UK) to determine the inhibitor concentration at half-maximal response (EC50). SGLT2 selectivity is represented as a ratio of EC50 in favor of SGLT2.
The subject of the next assay is type 2 diabetic patients. The text has this: C-aryl glucoside SGLT2 inhibitors are known to reduce blood glucose levels in diabetic patients, see U.S. Pat. No. 6,774,112, which is incorporated herein by reference in its entirety, but not known to increase urine volume. […] Metformin reduces plasma glucose concentration by non-renal mechanisms and is not known to induce glucosuria. […] On day 1 and day 14, the patients were examined for the levels of glucosuria and changes in urine volumes.

The subject of a further assay is healthy subjects. To be noted: healthy subjects, 5, 20, 50 or 100 mg, within 24 hours, indirect comparison.
In a further assay the test system is patients with diabetes. To be noted: patients with diabetes, 5, 25 or 100 mg.
The mark [2] stands for this setting: 2.5-50 mg, after 12 weeks of treatment.

Description for patients with diabetes: The levels of urine glucose of all subjects are shown in the plot and the mean urine glucose is in the darker lines.

On to `CN(C)C(=N)N=C(N)N` [Metformin, reference compound], for which the “HbA1c reduction from baseline” value in the assay with diabetic patients (1500 mg metformin, 12 weeks) is 0.73%.
For `CCOc1ccc(Cc2cc([C@@H]3O[C@H](CO)[C@@H](O)[C@H](O)[C@H]3O)ccc2Cl)cc1` [dapagliflozin], the “selectivity for SGLT2 relative to SGLT1” value in assay [1] is recorded as “High selectivity for SGLT2”.
`CCOc1ccc(Cc2cc([C@@H]3O[C@H](CO)[C@@H](O)[C@H](O)[C@H]3O)ccc2Cl)cc1` [dapagliflozin PGS, dapagliflozin (S)-propylene glycol solvate]: in the assay with type 2 diabetic patients (two-week period), the “fasting serum glucose (FSG) levels” value was “Dose-dependent reduction”, the “postprandial glucose levels in oral glucose tolerance tests (OGTT)” value is given as “reduced” and the urine volumes entry is “no increase”. Moreover, in the assay on type 2 diabetic patients (versus placebo, FIG. 3), the “urinary glucose levels within a 24-hour time period” value is given as “increased”. Moreover, in the assay with diabetic patients (setting [2]), the OGT result was “improved” and the “reduced HbAlC levels” value is 0.71-0.9%. The “glucosuric effect, loss of calories in the urine as compared to GSK 869,682” value in the assay with healthy subjects was “significant loss of calories in the urine”. The “urine glucose excretion compared to placebo” value in the assay on patients with diabetes was “higher”.
